Assay [1] deals with mouse peritoneal macrophages. The assay can be described thus: Nitrogen monoxide release assay (macrophage activation test). Format: cell-based, C3H/HeJ mice. Particulars: FIG. 1. From the text:
In principle, the activation of macrophages and monocytes can be measured by a large number of parameters, for example by means of the release of cytokines, chemokines or arachidonic acid metabolites in cultures of human monocytes or murine peritoneal macrophages. The test which is used here is based on the simultaneous stimulation of mouse peritoneal macrophages with interferon-γ and macrophage activator, e.g. BAP-Cys-PEG, so as to release nitrogen monoxide. (Reference: Muhlradt, P. F., and Frisch, M., 1994, “Purification and partial biochemical characterization of a Mycoplasma fermentans-derived substance that activates macrophages to release nitric oxide, tumor necrosis factor, and interleukin-6”, Infect. Immun. 62:3801-3807).
In brief, peritoneal macrophages from C3H/HeJ mice were used as the macrophage source. They were cultured in 96-well microtiter plates and stimulated simultaneously with rIFN-γ and a serial dilution of macrophage activator. Insofar as necessary, the macrophage activators were dissolved in 25 mM octylglucoside in the first dilution step and then diluted further with medium. After an incubating time of 45-48 hours, the nitrate was reduced with nitrate reductase and the starting substance nitrogen monoxide was determined, as the sum of nitrate and nitrite, using Griess' reagent. […]

The test system of assay [2] is diabetic mice (C57BKLS/Bom-db). The assay can be described thus: Wound healing in diabetic mice. In kind it is in vivo. The settings on record: 3×200 kU per animal on days 0, 2 and 5, in methylcellulose and 5% mouse serum; versus carrier control; FIG. 2. From the text:
As in the case of diabetic patients, wound healing is also disturbed in diabetic mice and proceeds more slowly than in wild-type mice. The diabetic mouse is therefore an established animal model for wound healing.
An area of approx. 4×4 cm in size was shaved on the backs of 20 diabetic mice ([…] C57BKLS/Bom-db) and this area was depilated with Veet two days later, after which the cream was carefully removed. After a further two days, the depilated backs of the mice were disinfected with Braunol. After anaesthesia had been initiated with isoflurane/air, an additional local anaesthesia was performed by means of the i.c. injection of 2% xylocaine directly into the site envisaged for the excision, and the skin was defatted with trichloroethylene. After that, scissors were used to cut out a circular skin wound of 1.3 cm in diameter in each of the mice. The wounds were closed with a transparent plaster (Hydrofilm, F. Hartmann) and dressing adhesive. An additional, larger plaster, having an aperture corresponding to the wound, making possible continued observation of the wound, was adhered on top of the first plaster.
3×200 kUnits of BPP-Cys-PEG, in methylcellulose and 5% mouse serum (as carrier), were administered, per animal, through the transparent plaster on days 0, 2 and 5.
Control mice were only given the carrier mixture. […]

The test system of assay [3] is β-galactosidase-specific antibodies. The assay can be described thus: Serum β-gal-specific IgG (ELISA) after intranasal immunization with β-gal plus adjuvant. In kind it is in vivo, BALB/c (H-2d) mice. How it is done: FIG. 3: Humoral responses which are stimulated after inoculating with MALP-2 derivatives and BPP-Cys-PEG, as mucosal adjuvants, at a dose of 0.05 μg per animal per immunization. The mice were immunized intranasally, on days 0, 7 and 14, with β-galactosidase (50 μg/dose) mixed with the above derivatives. On day 31 after the first immunization, serum samples were withdrawn and the concentrations of the β-galactosidase-specific antibodies were determined by means of ELISA. The results are depicted as end point titers.
(§1) 6-8-week-old female BALB/c (H-2d) mice (Harlan Winkelmann GmbH, Borchen, Germany) were used for the experiments. Groups of in each case 5 mice were administered 50 μg of β-galactosidase (β-gal) (Boehringer, Mannheim, Germany), either on its own or together with 0.5 μg of synthetic R-MALP-2, S-MALP-2 or BPP-Cys-PEG, as adjuvant, by the nasal route (25 μl) on days 1, 14 and 21. Serum samples were withdrawn on day 31 and stored at −20° C. until the β-gal-specific antibodies were determined. Nunc-Immuno MaxiSorp test plates containing 96 wells (Nunc, Roskilde, Denmark) were coated with 100 μl of β-gal (Boehringer, Mannheim, Germany), containing 5 μg/ml in 0.05 mol carbonate buffer (pH 8.2), per well. Serial double dilutions of the sera or washings in PBS containing 1% BSA and 0.05% Tween 20 were added (100 μl/well) and the plates were incubated at 37° C. for 2 hours. […]
Background: ELISA stands for enzyme-linked immunosorbent assay.

Assay [4] relates to β-gal-specific IgA. The assay can be described thus: β-gal-specific IgA in lung and vaginal washings of intranasally immunized mice. In kind it is in vivo, BALB/c (H-2d) mice. Particulars: intranasal immunization with β-gal plus adjuvant. As for the experimental part: as §1
Vaginal and lung washings were obtained by rinsing the organs with […] PBS which contained 50 mM EDTA, 0.1% BSA and 10 mM PMSF. […] In order to investigate the capacity of R-MALP-2, S-MALP-2 and BPP-Cys-PEG for stimulating effective humoral immune responses, the serum titers of β-gal-specific antibodies were determined in the inoculated mice.

In assay [5] the test system is spleen cells. The assay is described as follows: β-gal-specific T cell proliferation of spleen cells from immunized mice ([3H]-thymidine uptake). Format: in vivo, BALB/c (H-2d) mice. The settings on record: spleen cells re-stimulated in vitro for 4 days with soluble β-gal; FIG. 6. From the text:
FIG. 6: β-gal-specific T cell proliferation responses of spleen cells from immunized mice. The cells were re-stimulated in vitro over 4 days with different concentrations of soluble β-gal. The results are depicted as ratios between the values (means of triple determinations) from stimulated and unstimulated samples (stimulation index).
The spleens were removed and taken together for analyzing the cell immune responses. The cells were propagated in RPMI 1640, additionally containing 10% calf serum, 100 U of penicillin/ml, 15 μg of streptomycin/ml, 5×10^−5 M 2-mercaptoethanol and 1 mM L-glutamine (GIBCO BRL, Karlsruhe, Germany), and stored at 37° C. in a moist atmosphere containing 5% CO2. […] These cells were then harvested on filter paper (Filtermat A; Wallac, Freiburg, Germany) using a cell harvester (Inotech, Wohlen, Switzerland) and the quantity of [^3H] thymidine taken up into the DNA of proliferating cells was determined using a scintillation counter (Wallac 1450, Micro-Trilux). The results were recorded as the ratios between the values (mean values, determined in triplicate) of stimulated and unstimulated samples (stimulation index).

Entries after “also recorded” stand apart in the source; their conditions may differ.

For “bispalmitoyloxy-propylcysteine-PEG [BPP-Cys-PEG]”, the “concentration achieving the same degree of macrophage activation, relative to TPP-Cys-PEG” value in assay [1] (comparison with TPP-Cys-PEG (PAM3-Cys-PEG)) was “approx. forty times lower”. The “potential for activating macrophages (nitrogen monoxide production), compared with PAM3-Cys-PEG” value in assay [1] (peritoneal macrophages co-stimulated with rIFN-γ, 45-48 hours) is reported as “markedly higher potential for activating macrophages”. Also, the wound healing entry in assay [2] is on record as “accelerated the wound healing significantly”. Also, the “antigen-specific (β-gal) serum IgG titers” value in assay [3] (intranasal, 50 μg β-gal with 0.5 μg adjuvant, serum on day 31, FIG. 3) was “rise more rapidly than those obtained using R-MALP-2”. For the same substance, the “effectiveness as a mucosal adjuvant compared with R-MALP-2 (overall conclusion)” value in assay [3] (summary of humoral and cellular responses, systemic and mucosal) is “at least as effective as, or even more effective than, R-MALP-2”. The “β-gal-specific IgA in lung washings” value in assay [4] (FIG. 4) is on record as “significant increase in antigen-specific IgA antibodies”. Moreover, the “β-gal-specific IgA in vaginal washings” value in assay [4] (FIG. 5) was “significant concentrations of β-gal-specific IgA”. Moreover, the “β-gal-specific T cell proliferation response (stimulation index)” value in assay [5] is on record as “effective proliferation response; also recorded: strongest T cell proliferation response”.

The values above are taken from US7316996B2, “Bisacyloxypropylcysteine conjugates and the use thereof” (GBF Gesellschaft fur Biotechnologische Forschung mbH, priority 2002, dated 2008).
